In US7964634B2, “Therapeutic compounds” (Allergan, Inc., priority 2008, dated 2011):

Tested on: lashes and adjacent hairs of the eyelids
Test: Observation of eyelash and hair growth in glaucoma patients treated in one eye
Type: in vivo
Excerpt: In the course of treating patients having glaucoma, treatment may only be appropriate in one eye. […] The lash appearance on the lids of the treated eyes would have appeared quite attractive if it represented a bilateral phenomenon. As a result of its asymmetric nature, the long lashes on one side could be construed as disturbing from a cosmetic standpoint. A systemic examination was preformed as a result of the asymmetric phenomenon. It soon became apparent that this altered appearance was not an isolated finding.
The changes in the lashes were apparent on gross inspection in several patients once attention was focused on the issue. In those with light colored hair and lashes, the differences were only seen easily with the aid of the high magnification and lighting capabilities of the slit lamp biomicroscope. In the course of glaucoma follow-up examination, attention is generally immediately focused on the eye itself. As a result of the high power magnification needed only one eye is seen at a time and the eye is seen at a high enough power that the lashes are not in focus. At these higher powers, any lash asymmetry between the two eyes is not likely to be noticed except by careful systematic comparison of the lashes and adjacent hairs of the eyelids of the two eyes. […]

CCNC(=O)CCC/C=C\C[C@@H]1[C@@H](/C=C/[C@@H](O)CCc2ccccc2)[C@H](O)C[C@@H]1O [bimatoprost]
differences in lashes and adjacent hairs of the treated side (all patients taking the drug on a unilateral basis for longer than 6 months): Definite differences could be identified to varying degrees
lash appearance in treated eye versus non-treated eye (glaucoma patient treated in one eye only): longer, thicker, and fuller in the treated eye than in the non-treated eye
